{"source": "patent US20110183891A1", "about": "(priority 2009, published 2011)", "key": {"[1]": {"conditions": "cited from earlier work"}, "[2]": {"system": "SAP 6 binding to human platelets", "conditions": "for inhibition of SAP 6 binding to human platelets: ADP-activated platelets, Alexa Fluor 488 SAP 6", "quoted_text": "Cells were incubated with labeled enzyme together with ADP and inhibitors respectively at 40° C., then pellets were resuspended in 100 ml Hepes-Tyrode buffer, and fluorescence measured by TECAN (Ex./Em.=488 nm/519 nm). […] T test (mean with SEM), n=3, *P<0.05, **P<0.001.\nRecombinnat C. albicans SAP 6 was labeled with Alexa Fluor® 488 based on the Invitrogen Alexa Fluor® 488 protein labeling kit manual. […] To obtain the pure platelets, it needs to be further isolated as follows: (1) carefully transfer 10 ml platelets (including rich plasma) to a 15 ml tube and add 1/10 volume of ACD anticoagulant (6.25 g sodium citrate.2H2O, 3.1 g citric acid anhidrous, 3.4 g D-glucose in 250 ml H2O); (2) pellet platelets by centrifuged at 3000 rpm for 5 minutes at room temperature (note: after centrifugation, supernatant still contains significant amount of platelets and it can be collected for experiments); (3) resuspend the pellet in ˜1 ml Hepes-Tyrode buffer pH=7.4 (134 mM sodium chloride, 12 mM sodium bicarbonate, 2.9 mM potassium chloride, 0.34 mM sodium phosphate monobasic, 5 mM Hepes, 5 mM glucose, 1% BSA). When the human platelets were ready, they were incubated labeled SAP 6 with relative amount of platelets at 4° C., room temperature and 37° C. for 2 h, 1 h and 30 min respectively. The mixtures were washed by Hepes-Tyrode buffer two times at 1500 rpm for 8 min. Resuspended the pellets in Hepes-Tyrode buffer and mounted on glass slides. The glass slides were imaged by the epifluorescence microscope for simultaneous detection of Platelet/SAP 6-AlexaFluor-488 fluorescence (FIGS. 3A-B).\nPurified recombination C. albicans SAP 6 was labeled by the Alexa Fluor° 488 Protein Labeling Kit from Invitrogen. […] Fifty μl purified human platelets were added into the total 100 μl reaction mixture. A gradient of ADP concentrations (0.25 μM, 0.5 μM and 1 μM) was designed to test if ADP can activate platelets during the binding assay (FIG. 4A)."}, "[3]": {"system": "SAP 6 binding to A549 cells", "assay": "Inhibition of labeled SAP 6 binding to human lung carcinoma A549 cells (FACS)", "assay_type": "cell-based", "conditions": "for ratio of positive cells in R4: 400 μM inhibitor + labeled SAP 6, cells + labeled SAP 6 alone 3.23%, cells only 0.69%; for inhibition of SAP 6 binding to A549 cells: 10° C. for 30 min, FACS", "procedure": "RGDS peptide or Integrilin® inhibition assay and cell viability assay. Grew human lung carcinoma A 549 cell and harvested the cells with 46×10^4 per ml. Changed the medium from complete growth medium into D-MEM/F-12 without phenol red; and transferred the aliquot volume of 0.2 ml cells into 1.5 ml sterile tubes. Added 50 μl of 2.4 mM RGDS peptide and Integrilin® into sample III and sample IV respectively, incubated all samples at 37° C. for 10 min. Then, added […] labeled Fluoro®-488 SAP 6 into Sample II, Sample III and Sample IV (Sample I is negative control, added 100 μl medium inside). Incubated the four mixtures at 10° C. for 30 min, and then centrifuged the cell cultures at 400 g at 10° C. for 5 min to remove the suspension. Washed the cells 1-2 times with 1 ml D-MEM/F-12 medium without phenol red to remove the unbound compounds. Sort the negative (non-labeling SAP 6) and positive (binding labeled SAP 6) cells by fluorescence-activated cell-sorting (FACS). […] It is often considered as a negative control."}, "A549 cells": {"system": "A549 cells", "assay": "Morphology assay, rescue of apoptosis of A549 cells induced by SAP 6", "assay_type": "cell-based, human", "conditions": "bright-field images after two weeks incubation, data not shown"}, "[4]": {"target": "integrin of A549 cells (human lung carcinoma cells)"}}, "note": "Entries after “also recorded” stand apart in the source; their conditions may differ. Positions of bridges follow the written chain, without caps; N, C: chain ends. Non-standard residues stand in square brackets, D forms with d. Residues, ends and D or L forms follow the SMILES beside them. hArg = N=C(N)NCCCC[C@H](N)C(=O)O; Mpa = O=C(O)CCS", "data": [{"molecule": "Clc1ccccc1C(c1ccccc1)(c1ccccc1)n1ccnc1", "note": "[Clotrimazole]", "values": [{"measurement": "absorption after application to the skin", "setting": "[1]; in vivo", "result": "less than 0.5%"}, {"measurement": "absorption from the vagina", "setting": "[1]; in vivo", "result": "3-10%"}]}, {"molecule": "Clc1ccc(COC(Cn2ccnc2)c2ccc(Cl)cc2Cl)cc1", "note": "(stereo not shown) [Econazole]", "values": [{"measurement": "absorbed into the blood", "setting": "[1]; in vivo", "result": "Less than 1%"}]}, {"molecule": "OC(Cn1cncn1)(Cn1cncn1)c1ccc(F)cc1F", "note": "[Fluconazole]", "values": [{"measurement": "absorption from the GI tract", "setting": "[1]; in vivo, po", "result": "almost completely absorbed"}]}, {"molecule": "N=C(N)NCCCC[C@@H]1NC(=O)CCSSC[C@@H](C(N)=O)NC(=O)[C@@H]2CCCN2C(=O)[C@H](Cc2c[nH]c3ccccc23)NC(=O)[C@H](CC(=O)O)NC(=O)CNC1=O", "note": "[Integrilin®] ([Mpa][hArg]GDWPC-NH2; disulfide 1-7)", "values": [{"measurement": "inhibition of SAP 6 binding to human platelets", "setting": "[2]", "result": "dose-dependent inhibition"}, {"measurement": "ratio of positive cells in R4", "setting": "[3]", "result": 2.42, "unit": "%"}, {"measurement": "inhibition of SAP 6 binding to A549 cells", "setting": "[3]", "result": "can inhibit; also recorded: significantly inhibit"}]}, {"molecule": "CCC(C)n1ncn(-c2ccc(N3CCN(c4ccc(OCC5COC(Cn6cncn6)(c6ccc(Cl)cc6Cl)O5)cc4)CC3)cc2)c1=O", "note": "(stereo not shown) [Itraconazole]", "values": [{"measurement": "absorption in the fasting state relative to drug taken with food", "setting": "[1]; in vivo, po", "result": 30, "unit": "%"}]}, {"molecule": "CC(=O)N1CCN(c2ccc(OCC3COC(Cn4ccnc4)(c4ccc(Cl)cc4Cl)O3)cc2)CC1", "note": "(stereo not shown) [Ketoconazole]", "values": [{"measurement": "peak plasma concentrations", "setting": "[1]; oral doses 200-800 mg", "result": "4 to 20", "unit": "µg/mL"}]}, {"molecule": "Arg-Gly-Asp-Ser (RGDS)", "values": [{"measurement": "inhibition of SAP 6 binding to human platelets", "setting": "[2]", "result": "dose-dependent inhibition"}, {"measurement": "inhibition of SAP 6 binding to human platelets, compared between inhibitors", "setting": "[2]; FIG. 4B", "result": "much stronger than that of Integrilin®"}, {"measurement": "rescue of apoptosis of A549 cells induced by SAP 6", "setting": "A549 cells", "result": "can rescue the apoptosis"}, {"measurement": "ratio of positive cells in R4", "setting": "[3]", "result": 1.68, "unit": "%"}, {"measurement": "inhibition of SAP 6 binding to A549 cells", "setting": "[3]", "result": "much more inhibition than that of Integrilin®; also recorded: significantly inhibit"}]}, {"molecule": "Integrilin® (C35H49N11O9S2, molecular weight 831.96) (peptide)", "values": [{"measurement": "ratio of positive cells in R4", "setting": "[4]", "result": 2.42, "unit": "%"}]}, {"molecule": "SDGRG: reverse peptide with no competition for integrin binding, negative control", "values": [{"measurement": "inhibition of SAP 6 binding to A549 cells", "setting": "[3]", "result": "significantly less inhibition"}, {"measurement": "inhibition of SAP 6 binding to A549 cells", "setting": "[3]; listed as RDGRG", "result": "less inhibitory"}]}, {"molecule": "secreted aspartic protease 6 (SAP 6) from Candida albicans, recombinant (from UniProt P43095) (enzyme)", "values": [{"measurement": "ratio of positive cells in R4", "setting": "[4]", "result": 3.23, "unit": "%"}]}, {"molecule": "RGDS", "note": "[RGDS peptide (Arg-Gly-Asp-Ser)]", "values": [{"measurement": "ratio of positive cells in R4", "setting": "[4]", "result": 1.68, "unit": "%"}]}]}
